Laboratory results from BindingDB's records for doi:10.7270/Q2CN728N (Nmmlsc, 2008).
Structures can show the parent of a compound that is named as a salt.

These molecules were tested against T1, Bcl-2-related protein A1 (Homo sapiens, UniProt Q16548) (assay: inhibitors of Bim binding to Bfl-1, dose response, biochemical, multiplexed, bead-based flow cytometry (AID 1320)). Settings: inactive by the depositor's call; pH 7.4; 4 °C.
T1 sequence (Q16548 whole entry): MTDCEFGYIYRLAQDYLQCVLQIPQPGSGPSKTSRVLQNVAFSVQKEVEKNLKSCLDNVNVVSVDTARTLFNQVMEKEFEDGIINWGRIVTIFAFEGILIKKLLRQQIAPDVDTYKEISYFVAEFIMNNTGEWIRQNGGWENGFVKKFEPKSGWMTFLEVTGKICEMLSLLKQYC

| SMILES | EC50 [µM] |
| --- | --- |
| Cc1nc2ncccn2c1-c1csc(Nc2ccccc2)n1 [4-(2-methyl-3-imidazo[1,2-a]pyrimidinyl)-N-phenyl-2-thiazolamine] | 11.7 |
| CNc1ccc(Br)cc(C(=O)/C=C/c2cccc(OC)c2)c1=O [4-bromo-2-[3-(3-methoxyphenyl)acryloyl]-7-(methylamino)-2,4,6-cycloheptatrien-1-one] | 17.5 |
| Cc1cc(C)nc(SCc2cc(=O)c(OC(=O)c3ccc(Cl)c([N+](=O)[O-])c3)co2)n1 [4-chloro-3-nitrobenzoic acid [6-[[(4,6-dimethyl-2-pyrimidinyl)thio]methyl]-4-oxo-3-pyranyl] ester] | 19.7 |
| COc1cc(/N=c2/ssnc2Cl)cc(OC)c1 [4-chloro-N-(3,5-dimethoxyphenyl)-5-dithiazolimine] | 15 |
| CCOC(=O)c1sc(N)c(C(=O)Nc2ccccc2OC)c1C [5-amino-4-[(2-methoxyanilino)-oxomethyl]-3-methyl-2-thiophenecarboxylic acid ethyl ester] | 5.66 |
| O=C(N[N-][CH+]c1ccc(-c2ccccc2[N+](=O)[O-])o1)c1cncc(Br)c1 [5-bromo-N-[[5-(2-nitrophenyl)furan-2-yl]methylideneamino]pyridine-3-carboxamide] | 33.6 |
| O=C1C(=Cc2ccco2)NC(=S)N1c1ccccc1 [(5E)-5-(furan-2-ylmethylidene)-3-phenyl-2-sulfanylideneimidazolidin-4-one] | 14.8 |
| CC(C)CN1C(=O)/C(=C/c2ccco2)NC1=S [(5Z)-5-(2-furanylmethylidene)-3-(2-methylpropyl)-2-sulfanylidene-4-imidazolidinone] | 11 |
| Cc1ccc(-c2ccc(/C=C3\SC(N4CCOCC4)=NC3=O)o2)cc1 [(5Z)-5-[[5-(4-methylphenyl)-2-furanyl]methylidene]-2-(4-morpholinyl)-4-thiazolone] | 20 |
| COc1cc(C2Nc3cccc4cccc(c34)N2)ccc1OC(C)=O [Acetic acid 4-(2,3-dihydro-1H-perimidin-2-yl)-2-methoxy-phenyl ester] | 11.1 |
| COC(=O)CSc1ncnc2c1sc1nc(-c3ccco3)c3c(c12)CC(C)(C)OC3 [MLS000039339] | 12.4 |
| C/C(=C\c1ccco1)C1Nc2cccc3cccc(c23)N1 [MLS000055728] | 15.8 |
| CCOc1cc(C2Nc3cccc4cccc(c34)N2)ccc1O [MLS000068595] | 37.5 |
| COc1ccc(-n2c(NC(=O)c3ccco3)c(C#N)c3nc4ccccc4nc32)cc1 [MLS000079925] | 16.1 |
| Cc1cc2n(c1)CCn1c(C)ccc1-2 [MLS000104384] | 12.6 |
| Cc1ccc(C)n1-c1ccc(N2CCOCC2)cc1 [MLS000111760] | 11.4 |
| Clc1nc(NCc2cccnc2)nc(N2CCOCC2)n1 [MLS000121154] | 30.8 |

| SMILES | EC50 [µM] |
| --- | --- |
| CCOC(=O)C(=Cc1cccc(O)c1)c1nc2sc(C)c(C)c2c(=O)[nH]1 [MLS000393989] | 9.56 |
| S=c1[nH]cc(-c2ccccc2)n1-c1ccccc1Cl [MLS000417182] | 2.23 |
| CCCCNc1[nH]c(=S)nc2cc(OC)c(OC)cc12 [MLS000520261] | 17.3 |
| COc1ccc(C2=Nc3cccc4cccc(c34)N2)cc1 [MLS000551954] | 6.49 |
| CCOc1cccc(CNc2ccc(O)cc2)c1OCc1ccccc1Cl [MLS000580486] | 1.61 |
| CCCC(=O)OCCNc1cc(Sc2nccn2C)c2nonc2c1[N+](=O)[O-] [MLS000584441] | 18.1 |
| Cc1ccc(/C=C2/NC(=O)N(Cc3ccccc3)C2=O)o1 [MLS000698643] | 2.73 |
| COc1ccc(/C=C/C(=O)c2cc(Br)ccc(=O)c2O)cc1 [MLS000702099] | 14 |
| COc1cccc2c1C(=O)C=C(C)C2=O [MLS000702735] | 28.3 |
| COC(=O)CCC(=O)Nc1sc(Cc2ccccc2)c(C)c1C(N)=O [MLS000708819] | 0.97 |
| CCOC(=O)c1cc2c(=O)n3ccccc3nc2n(Cc2ccco2)/c1=N/C(=O)c1ccccc1OC [MLS000729830] | 34.5 |
| Cc1ccc(/C=C/C(=O)c2ccccc(=O)c2O)cc1C [MLS000756172] | 14.9 |
| CC(=O)Nc1ccc(-n2cc(-c3ccccc3)[nH]c2=S)cc1 [MLS001001946] | 0.47 |
| CCc1cccc(CC)c1-n1c(-c2cccnc2)n[nH]c1=S [MLS001006773] | 1.09 |
| COc1ccccc1-n1c(-c2ccccc2)c[nH]c1=S [MLS001007615] | 0.61 |
| O=C(Cn1c2ccccc2c(=O)c2ccccc21)N/N=C/c1ccc(N2CCCC2)c([N+](=O)[O-])c1 [N'-[(1E)-(3-nitro-4-pyrrolidin-1-ylphenyl)methylene]-2-(9-oxoacridin-10(9H)-yl)acetohydrazide] | 41.1 |
| O=C(Nc1ccc(N2CCOCC2)cc1)Nc1ccc2nc(-c3ccco3)c(-c3ccco3)nc2c1 [N-(2,3-di-2-furyl-6-quinoxalinyl)-N'-[4-(4-morpholinyl)phenyl]urea] | 19.5 |

Same assay, conditions: pH 7.4; 4 °C

| SMILES | EC50 [µM] |
| --- | --- |
| C=CS(=O)(=O)c1sc(Cl)c(N2CCOCC2)c1[N+](=O)[O-] [4-(2-chloranyl-5-ethenylsulfonyl-4-nitro-thiophen-3-yl)morpholine] | 5.46 |
| Cc1ccc(-c2c3c([nH]c(=S)c2C#N)CCCC3)o1 [4-(5-methylfuran-2-yl)-2-sulfanylidene-5,6,7,8-tetrahydro-1H-quinoline-3-carbonitrile] | 8.21 |
| CCN(CC)c1ccc(Nc2nc(N3CCOCC3)c3ccccc3n2)cc1 [4-N,4-N-diethyl-1-N-(4-morpholin-4-ylquinazolin-2-yl)benzene-1,4-diamine] | 9 |
| CCOc1cccc(CNc2ccc(O)cc2)c1OCc1ccc(Cl)cc1 [4-[[2-[(4-chlorophenyl)methoxy]-3-ethoxyphenyl]methylamino]phenol] | 2.8 |
| CNc1ccc(Br)cc(C(=O)/C=C/c2cccc(OC)c2OC)c1=O [4-bromanyl-2-[(E)-3-(2,3-dimethoxyphenyl)prop-2-enoyl]-7-(methylamino)cyclohepta-2,4,6-trien-1-one] | 8.38 |
| CN(C)c1ccc(C=C2C(=O)NC(=O)NC2=O)cc1[N+](=O)[O-] [5-[[4-(dimethylamino)-3-nitrophenyl]methylidene]-1,3-diazinane-2,4,6-trione] | 4.67 |
| Cc1ccc(-c2nc3c(c(=O)[nH]c(=O)n3Cc3ccccc3)n2C)o1 [7-methyl-8-(5-methyl-2-furanyl)-3-(phenylmethyl)purine-2,6-dione] | 1.94 |
| COc1cc(/C=C2\CC/C(=C\c3cc(OC)c(O)c(OC)c3)C2=O)cc(OC)c1O [(2E,5E)-2,5-bis[(4-hydroxy-3,5-dimethoxyphenyl)methylidene]cyclopentan-1-one] | 3.9 |
| O=C1/C(=C\c2ccc(-c3ccccc3Cl)o2)SC(=S)N1CC1CCCO1 (configuration not stated) [(5E)-5-[[5-(2-chlorophenyl)furan-2-yl]methylidene]-3-(oxolan-2-ylmethyl)-2-sulfanylidene-1,3-thiazolidin-4-one] | 2.6 |
| Fc1ccc(C=C2CCCC3C2=NC(=S)NC3c2ccc(F)cc2)cc1 (configuration not stated) [(8E)-4-(4-fluorophenyl)-8-[(4-fluorophenyl)methylidene]-1,3,4,5,6,7-hexahydroquinazoline-2-thione] | 6.65 |
| CN1CCc2cccc3c2[C@H]1Cc1ccc(O)c(O)c1-3 [APOMORPHINE HYDROCHLORIDE] | 46.4 |
| Cc1ccc(-c2cc(-c3ccc(F)cc3)nc(N)c2C#N)o1 [MLS000082831] | 2.44 |
| CCOC(=O)C1CCN(C(=O)Nc2ccc3nc(-c4ccco4)c(-c4ccco4)nc3c2)CC1 [MLS000113285] | 1.18 |
| Clc1ccc2c(N=NCc3ccccc3Br)ccnc2c1 [MLS000336087] | 12.2 |
| O=[N+]([O-])c1ccc(N=NCc2ccc(O)c(O)c2O)c(S(=O)(=O)N2CCOCC2)c1 [MLS000336720] | 4.48 |
| O=[N+]([O-])c1ccc(N2CCN(c3ccc(O)cc3)CC2)c(Cl)c1 [MLS000374649] | 1.77 |
| Cc1ccc(NC2=C(NC(=O)c3ccccc3)C(=O)c3ccccc3C2=O)cc1Cl [MLS000392290] | 2.31 |

| SMILES | EC50 [µM] |
| --- | --- |
| O=[N+]([O-])c1c(NCCO)cc(Sc2nc3ccccc3s2)c2nonc12 [MLS000520993] | 0.12 |
| O=[N+]([O-])c1c(NCCCO)cc(Sc2nc3ccccc3s2)c2nonc12 [MLS000520994] | 0.61 |
| CN(CCO)c1cc(Sc2nc3ccccc3s2)c2nonc2c1[N+](=O)[O-] [MLS000520995] | 1.48 |
| CC(=O)OCCCNc1cc(Sc2nc3ccccc3s2)c2nonc2c1[N+](=O)[O-] [MLS000521052] | 0.08 |
| O=C1C=CC(C=NNC(=O)C(=Cc2ccc([N+](=O)[O-])cc2)NC(=O)c2ccccc2)C(O)=C1O (configuration not stated) [MLS000530401] | 5.22 |
| COc1ccc2c3c(cccc13)N(C)N=C2C [MLS000554700] | 0.61 |
| Cc1ccc(/C=C/C(=O)Nc2ccc([N+](=O)[O-])c(NC(=O)/C=C/c3ccc(C)o3)c2)o1 [MLS000578867] | 0.83 |
| Cc1ccc(-c2cc(C(=O)Nc3nccs3)c3ccccc3n2)o1 [MLS000579660] | 9.21 |
| Cc1nnc(Sc2cc(NCCCO)c([N+](=O)[O-])c3nonc23)s1 [MLS000674027] | 0.13 |
| Fc1ccc(C2=Nc3cccc4cccc(c34)N2)cc1 [MLS000687139] | 7.63 |
| CCN(C(=O)COC(=O)c1cc(-c2ccc(C)o2)nc2ccccc12)C1CCS(=O)(=O)C1 (configuration not stated) [MLS001003409] | 3.38 |
| CC1=CC(=O)c2c(O)ccc(O)c2C1=O [MLS001048870] | 2.87 |
| c1ccc(Nc2cccc(Nc3ccccc3)n2)cc1 [N,N'-diphenyl-2,6-pyridinediamine] | 1.17 |
| CC(=O)c1ccc(NC(=O)c2ccc3nc(-c4ccco4)c(-c4ccco4)nc3c2)cc1 [N-(4-acetylphenyl)-2,3-di-2-furyl-6-quinoxalinecarboxamide] | 2.34 |
| Clc1nss/c1=N\c1ccc(Br)cc1 [N-(4-bromophenyl)-4-chloro-5-dithiazolimine] | 9.18 |
| COc1ccc(CCNC(=O)c2ccc3nc(-c4ccco4)c(-c4ccco4)nc3c2)cc1OC [N-[2-(3,4-dimethoxyphenyl)ethyl]-2,3-di-2-furylquinoxaline-6-carboxamide] | 4.3 |
